Values after ≈ are worked out from the molar mass of the structure shown.
How the values were obtained:
Corynebacterium = assay: Broth microdilution antibacterial susceptibility (MIC), keratitis/conjunctivitis isolates; assay type: cell-based; details: at ≤2 mcg/mL
Protocol: (§1) Example 3: In Vitro “Proof of Concept” Study of Effects of Plazomicin on Isolates from Bacterial Keratitis and/or Conjunctivitis
(§2) Isolates from patients diagnosed clinically with microbial keratitis were tested for antibacterial susceptibility against plazomicin agents using reference broth microdilution methods.
(§3) 21 grams of Muller Hinton broth powder was suspended in 1000 ml of distilled water.
(§4) Pure cultures of bacterial isolates were prepared in Blood Agar/Mueller Hinton agar from cryovials.
(§5) A standardized inoculum of 0.5 McFarland was prepared using direct colony suspension method.
(§6) 3-5 well isolated colonies were taken from 18-24 hour culture plate and suspended into 2 ml of sterile saline/Muller Hinton broth.
(§7) A homogenous suspension was made, and the turbidity was adjusted to 0.5McFarland turbidity standard (approximately 1*10^6-8 CFU/ml) using the Densitometer.
(§8) A 0.1 ml of standardized bacterial inoculum was added to 9.9 ml of sterile saline solution. (i.e., a 1:100 dilution).
(§9) A 96 well round bottomed plate was used for the Microbroth dilution assay.
(§10) A 100 μl of Muller Hinton broth containing drug concentrations from 0.125 mcg/ml to 64 mcg/ml (0.125 mcg/ml, 0.25 mcg/ml, 0.5 mcg/ml, 1 mcg/ml, 2 mcg/ml, 4 mcg/ml, 8 mcg/ml, 16 mcg/ml, 32 mcg/ml, and 64 mcg/ml) were added to the 96 well.
(§11) To this a 100 μl of the diluted bacterial inoculum (1:100) was added to each well with varying concentration of drugs. Each well contained 5*10^5 CFU/ml bacteria.
(§12) Growth control (Respective organism+Muller Hinton broth) and sterility control (Sterile Muller Hinton broth) were added to the 96 well plate.
(§13) The plate was incubated for 18-24 hours to read the Minimum Inhibitory Concentration (MIC).
(§14) Gram positive isolates evaluated: • 1. Methicillin susceptible Staphylococcus aureus (MSSA) • 2. Methicillin resistant Staphylococcus aureus (MRSA) • 3. Staphylococcus epidermidis • 4. Staphylococcus hominis • 5. Staphylococcus haemolyticus • 6. Streptococcus pneumoniae • 7. Corynebacterium

[1] = tested on: Methicillin resistant Staphylococcus aureus (MRSA); assay: as above; assay type: cell-based
Protocol: as §1, §2, §3, §4, §5, §6, §7, §8, §9, §10, §11, §12, §13, §14

[2] = tested on: Methicillin susceptible Staphylococcus aureus (MSSA); assay: as above; assay type: cell-based
Protocol: as §1, §2, §3, §4, §5, §6, §7, §8, §9, §10, §11, §12, §13, §14

Staphylococcus spp. = assay: as above; assay type: cell-based
Protocol: as §1, §2, §3, §4, §5, §6, §7, §8, §9, §10, §11, §12, §13, §14

S. epidermidis = assay: as above; assay type: cell-based, Staphylococcus epidermidis; details: at ≤2 mcg/mL
Protocol: as §1, §2, §3, §4, §5, §6, §7, §8
(§15) A 96 well round bottomed plate was used for the Microbroth dilution assay. […]
as §13
(§16) Gram positive isolates evaluated: • 1. […]

S. hominis = assay: as above; assay type: cell-based, Staphylococcus hominis; details: at ≤2 mcg/mL
Protocol: as §1, §2, §3, §4, §5, §6, §7, §8, §15, §13, §16

S. haemolyticus = assay: as above; assay type: cell-based, Staphylococcus haemolyticus; details: at ≤2 mcg/mL
Protocol: as §1, §2, §3, §4, §5, §6, §7, §8, §15, §13, §16

Enterobacter spp. = assay: as above; assay type: cell-based; details: at ≤2 mcg/mL
Protocol: as §1, §2, §3, §4, §5, §6, §7, §8, §9, §10, §11, §12, §13
(§17) • 1. Pseudomonas • 2. Klebsiella pneumoniae • 3. Klebsiella pneumoniae (ESBLs) • 4. Moraxella lacunata • 5. Haemophilus influenzae • 6. Proteus • 7. Serratia • 8. Enterobacter e.

[3] = tested on: Enterobacterales isolates; assay: as above; assay type: cell-based
Protocol: as §1, §2, §3, §4, §5, §6, §7, §8, §9, §10, §11, §12, §13, §17

Moraxella lacunata = assay: as above; assay type: cell-based; details: at ≤2 mcg/mL
Protocol: as §1, §2, §3, §4, §5, §6, §7, §8, §9, §10, §11, §12, §13, §17

Pseudomonas spp. = assay: as above; assay type: cell-based
Protocol: as §1, §2, §3, §4, §5, §6, §7, §8, §9, §10, §11, §12, §13, §17

conjunctival isolates = assay: Broth microdilution antibacterial susceptibility (MIC), conjunctival isolates; assay type: cell-based; details: ≤4 mcg/mL
Protocol: as §1, §2, §3, §4, §5, §6, §7, §8, §15, §13, §16

[4] = tested on: Isolates from Bacterial Keratitis and/or Conjunctivitis; assay: In vitro proof of concept study, overall antibacterial activity; assay type: cell-based
Protocol: as §1, §2, §3, §4, §5, §6, §7, §8, §15, §13, §16

MRSA = details: vs amikacin; cited from earlier work
MSSA = details: vs amikacin; cited from earlier work
[5] = tested on: species of Staphylococcus; details: cited from earlier work
[6] = tested on: Gram-negative enteric bacteria; details: cited from earlier work
[7] = Staphylococcus aureus, 18-24 hours incubation

For CN[C@@H]1[C@@H](O)[C@@H](O[C@@H]2[C@@H](O)[C@H](O[C@H]3OC(CNCCO)=CC[C@H]3N)[C@@H](N)C[C@H]2NC(=O)[C@@H](O)CCN)OC[C@]1(C)O [Plazomicin], the “activity (% of isolates)” value (Corynebacterium) was 100%, the susceptible isolates [1] was 60% and the MIC50 [1, 7] was 2 µg/mL (≈ 3.37 µM). It also gave an MIC90 [1, 7] of 8 µg/mL (≈ 13.5 µM), a susceptible isolates [2] of 67.3% and an MIC50 [2, 7] of 2 µg/mL (≈ 3.37 µM). It also gave an MIC90 [2, 7] of 8 µg/mL (≈ 13.5 µM), an isolates inhibited (Staphylococcus spp.; at ≤2 mcg/mL) of 46% and an isolates inhibited (Staphylococcus spp.; at ≤4 mcg/mL) of 73.5%. The isolates inhibited (Staphylococcus spp.; at ≤8 mcg/mL) was 90.10%, the “activity (% of isolates)” value (S. epidermidis) was 100% and the “activity (% of isolates)” value (S. hominis) was 100%. For the same compound, the “activity (% of isolates)” value (S. haemolyticus) was 100%, the “activity (% of isolates)” value (Enterobacter spp.) was 100% and the isolates inhibited ([3]; at ≤2 mcg/mL) was 61.5%. For the same compound, the isolates inhibited ([3]; at ≤4 mcg/mL) was 11.5%, the “activity (% of isolates)” value (Moraxella lacunata) was 100% and the “showed activity for % of isolates” value (Pseudomonas spp.) was 50%. For the same compound, the MIC50 (Pseudomonas spp.; 18-24 hours incubation) was 4 µg/mL (≈ 6.75 µM), the MIC90 (Pseudomonas spp.; 18-24 hours incubation) was 16 µg/mL (≈ 27 µM) and the “susceptibility of conjunctival isolates” value (conjunctival isolates) was 100%. The “antibacterial activity (conclusion)” value [4] was “very good antibacterial activity”, the “activity compared with amikacin” value (MRSA) was “greater activity than amikacin” and the “activity compared with amikacin” value (MSSA) was “greater activity than amikacin”. For the same compound, the activity [5] was “potent activity” and the “in vitro activity compared with amikacin, gentamicin and tobramycin” value [6] was “more potent in vitro activity than amikacin, gentamicin and tobramycin”.

Reference: US20260315376A1, “NOVEL OPHTHALMIC COMPOSITION” (Cipla Limited, priority 2022, published 2026)
